Measurements published in patent US10428082B2, “Triazole derivatives of melampomagnolide B and methods of use thereof” (BioVentures, LLC, priority 2016, dated 2019).
Where two headings read alike, the source gives them in different places.

Columns and labels:
BT-549 = assay: NCI 60 growth inhibition; type: cell-based, human; conditions: Homo sapiens; BT-549, Breast Cancer, Table 2
HT29 = assay: NCI 60 growth inhibition; type: cell-based, human; conditions: Homo sapiens; HT-29, Colon Cancer, Table 2
SR = assay: NCI 60 growth inhibition; type: cell-based, human; conditions: Homo sapiens, Leukemia, Table 2
T-47D = assay: NCI 60 growth inhibition; type: cell-based, human; conditions: Homo sapiens, T47D, Breast Cancer, Table 2
SK-MEL-5 = assay: NCI 60 growth inhibition; type: cell-based, human; conditions: Homo sapiens; SK-MEL-5, Melanoma, Table 2
HOP-62 = assay: NCI 60 growth inhibition; type: cell-based, human; conditions: Homo sapiens; HOP-62, Non-Small Cell Lung Cancer, Table 2
NCI-H522 = assay: NCI 60 growth inhibition; type: cell-based, human; conditions: Homo sapiens; NCI-H522, Non-Small Cell Lung Cancer, Table 2
M14 = assay: NCI 60 growth inhibition; type: cell-based, human; conditions: Homo sapiens; M14, Melanoma, Table 2
HL-60(TB) = assay: NCI 60 growth inhibition; type: cell-based, human; conditions: Homo sapiens; HL-60(TB), Leukemia, Table 2
HOP-92 = assay: NCI 60 growth inhibition; type: cell-based, human; conditions: Homo sapiens; HOP-92, Non-Small Cell Lung Cancer, Table 2
SK-OV-3 = assay: NCI 60 growth inhibition; type: cell-based, human; conditions: Homo sapiens; SK-OV-3, Ovarian Cancer, Table 2
SK-MEL-28 = assay: NCI 60 growth inhibition; type: cell-based, human; conditions: Homo sapiens; SK-MEL-28, Melanoma, Table 2
LOX IMVI = assay: NCI 60 growth inhibition; type: cell-based, human; conditions: Homo sapiens, Melanoma, Table 2
U251 = assay: NCI 60 growth inhibition; type: cell-based, human; conditions: Homo sapiens, U-251; U251, CNS Cancer, Table 2
NCI/ADR-RES = assay: NCI 60 growth inhibition; type: cell-based, human; conditions: Homo sapiens, Ovarian Cancer, Table 2
UACC-62 = assay: NCI 60 growth inhibition; type: cell-based, human; conditions: Homo sapiens; UACC-62, Melanoma, Table 2
HCT-15 = assay: NCI 60 growth inhibition; type: cell-based, human; conditions: Homo sapiens; HCT-15, Colon Cancer, Table 2
NCI-H322M = assay: NCI 60 growth inhibition; type: cell-based, human; conditions: Homo sapiens, Non-Small Cell Lung Cancer, Table 2
SF-268 = assay: NCI 60 growth inhibition; type: cell-based, human; conditions: Homo sapiens; SF-268, CNS Cancer, Table 2
[1] = system: NCI panel of 60 human cancer cell lines; assay: NCI 60 growth inhibition, ranges over groups of cell lines; type: cell-based; conditions: read-out: GI50
Description: The above triazole derivatives of melampomagnolide B were evaluated for growth inhibitory properties against an NCI panel of 60 human cancer cell lines derived from nine human cancer cell types, grouped into disease sub-panels that represent leukemia, lung, colon, central nervous system (CNS), melanoma, renal, ovary, breast, and prostate cancer cells. Growth inhibitory (GI50) effects were measured as a function of the variation of optical density as a percentage of control.

HO-1 = assay: Induction of HO-1 by Western blot assay; type: cell-based
NF-κB pathway = assay: NF-κB inhibition by Western blot, phosphorylation of the P65 subunit; type: cell-based
Description: Also JVM 4-29 was evaluated for NF-κB inhibition by Western blot analysis; by determining its effect on the phosphorylation of the P65 subunit.

M9 ENL1 cell line = assay: Anti-leukemic activity, Annexin V/7-AAD flow cytometry; type: cell-based; conditions: for EC50: M9-ENL1, 24 h, 24 h of drug exposure, read-out: M9ENL1 (EC50)
Description: (§1) The newly synthesized triazole derivatives of melampomagnolide B were screened for anti-leukemic activity against M9 ENL1 and primary AML cell lines; the latter were obtained with informed consent from human patients. Evaluations were performed after 24 h of drug exposure using flow cytometric analysis by labeling with Annexin V and 7-aminoactinomycin D (7-AAD) to delineate apoptotic cell populations. In all experiments PTL was included as a reference control.

[2] = system: primary AML cell line AML1; assay: as above; type: cell-based, human; conditions: for EC50: Homo sapiens, AML1, 24 h, 24 h of drug exposure, read-out: AML#1 (EC50)
Description: as §1

[3] = system: primary AML cell line AML2; assay: as above; type: cell-based, human; conditions: for EC50: Homo sapiens, 24 h, 24 h of drug exposure, read-out: AML#2 (EC50)
Description: as §1

CAKI-1 = assay: NCI 60 growth inhibition; type: cell-based, human; conditions: Homo sapiens; CAKI-1, Renal Cancer, Table 2

SMILES | GI50 (BT-549) | GI50 (HT29) | GI50 (SR) | GI50 (T-47D) | GI50 (SK-MEL-5) | GI50 (HOP-62) | GI50 (NCI-H522) | GI50 (M14) | GI50 (HL-60(TB)) | GI50 (HOP-92) | GI50 (SK-OV-3) | GI50 (SK-MEL-28) | GI50 (LOX IMVI) | GI50 (U251) | GI50 (NCI/ADR-RES) | GI50 (UACC-62) | GI50 (HCT-15) | GI50 (NCI-H322M) | GI50 (SF-268) | EC50 (M9 ENL1 cell line) | further results
C=C1C(=O)O[C@H]2[C@H]1CC/C(Cn1cc(-c3cc(C(F)(F)F)cc(C(F)(F)F)c3)nn1)=C\CC[C@@]1(C)O[C@@H]21 [JVM 4-29, (1aR,7aS,10aS,10bS,E)-5-((4-(3,5-bis(Trifluoromethyl)phenyl)-1H-1,2,3-triazol-1-yl)methyl)-1a-methyl-8-methylene-2,3,6,7,7a,8,10a,10b-octahydrooxireno[2′,3′:9,10]cyclodeca[1,2-b]furan-9(1aH)-one] | 170 nM | 190 nM | 100 nM | 330 nM | 1470 nM | 1560 nM | 120 nM | 350 nM | 190 nM | 340 nM | 1860 nM | 460 nM | 150 nM | 1440 nM | 1050 nM | 340 nM | 190 nM | 1670 nM | 1080 nM | 600 nM | GI50 ([1]; all the cell lines in the leukemia sub-panel): 100 to 500 nM; GI50 ([1]; most of the solid tumor cell lines in the panel): 120 to 880 nM; induction of HO-1 compared to PTL (HO-1): stronger induction of HO-1 when compared to PTL; inhibition of the NF-κB pathway compared to parthenolide (NF-κB pathway): significantly more potency as an inhibitor of the NF-κB pathway when compared to parthenolide; cytotoxicity compared with parthenolide (M9 ENL1 cell line; M9 ENL1 cell assay): more cytotoxic than parthenolide; fold more potent than parthenolide (PTL) (M9 ENL1 cell line; M9 ENL1 cells): 8.6 fold; EC50 [2]: 400 nM; fold more cytotoxic compared to DMAPT ([2]; primary cell line AML1): 36.7 fold; fold more potent anti-leukemic activity than PTL ([2]; primary cell line AML1): 32.7 fold; fold more potent than the MMB ([2]; primary cell line AML1): 51.2 fold; EC50 [3]: 700 nM; fold more cytotoxic compared to DMAPT ([3]; primary cell line AML2): 16.1 fold; fold more potent anti-leukemic activity than PTL ([3]; primary cell line AML2): 14.8 fold; fold more potent than the MMB ([3]; primary cell line AML2): 34.7 fold
C=C1C(=O)O[C@H]2[C@H]1CC/C(Cn1cc(-c3ccc(OC)cc3)nn1)=C\CC[C@@]1(C)O[C@@H]21 [JVM 4-24, (1aR,7aS,10aS,10bS,E)-5((4-(4-Methoxyphenyl)-1H-1,2,3-triazol-1-yl)methyl)-1a-methyl-8-methylene-2,3,6,7,7a,8,10a,10b-octahydrooxireno[2′,3′:9,10]cyclodeca[1,2-b]furan-9(1aH)-one] | 1310 nM | 1230 nM | 250 nM | 1430 nM | 2100 nM | 10500 nM | 380 nM | 1300 nM | 1170 nM | 1130 nM | 16300 nM | 820 nM | 1160 nM | 9450 nM | 3080 nM | 1350 nM | 330 nM | 10700 nM | 2070 nM | 1400 nM | GI50 (CAKI-1): 1030 nM; GI50 ([1]; 60 cell, several cell lines in the NCI 60 cell panel): 200 to 990 nM; EC50 [2]: 2000 nM; EC50 [3]: 2500 nM
